Test results as given in patent US7468376B2, “Pyrazolopyridine derivates” (Palau Pharma, S.A., priority 2003, dated 2008).

Tested on: TNF-α release induced by LPS in human peripheral blood mononuclear cells
Experiment: Test 2: Inhibition of TNF-α release induced by LPS in human peripheral blood mononuclear cells
Assay type: cell-based
Conditions: test product at 0.1 μM, LPS 400 ng/mL, 19 h, TNF-α in supernatant by ELISA; for inhibition at 0.1 µM: Homo sapiens, PBMC
Procedure: Test 2: Inhibition of TNF-α Release Induced by LPS in Human Peripheral Blood Mononuclear Cells
To obtain the mononuclear cells: heparinized venous blood, obtained from healthy volunteers, is diluted with an equal volume of saline phosphate buffer without calcium or magnesium. Aliquots of 30 mL of the mixture are transferred to 50 mL centrifuge tubes containing 15 mL of Ficoll-Hypaque (1.077 g/mL). The tubes are centrifuged at 1200×g for 20 min at room temperature without braking. Approximately two-thirds of the band of platelets lying above the mononuclear cells is removed with a pipette. The mononuclear cells are carefully transferred to a 50 mL tube, washed twice with saline phosphate buffer, centrifuged at 300×g for 10 min at room temperature and resuspended in RPMI supplemented with 1% inactivated fetal bovine serum at a cell density of 2×10^6 cells/mL.
Inhibition of TNF-α release: 100 μL of mononuclear cells (2×10^6 cells/mL) are incubated on 96-well plates with 50 μL of the test product (final concentration, 0.001-10 μM) and 50 μL LPS (E. coli 055B5, Sigma) at a final concentration of 400 ng/mL for 19 h at 37° C. in an atmosphere with CO2 at 5%. The amount of TNF-α released in the supernatant is quantified using a commercial ELISA kit (Biosource International).

Compound	inhibition at 0.1 µM	% Inhibition at 0.1 μM
C[C@H](Nc1nccc(-c2cc3cn[nH]c3nc2-c2cccc(C(F)(F)F)c2)n1)c1ccccc1 [Example 128, (1S)-N-(1-Phenylethyl)-[4-[6-[3-(trifluoromethyl)phenyl]-1H-pyrazolo[3,4-b]pyridin-5-yl]pyrimidin-2-yl]amine]	82%	–
OCCCn1cc2c(-c3ccc(F)cc3)c(-c3ccncc3)c(-c3ccc(F)cc3)nc2n1 [Example 18, 3-[4,6-Bis(4-fluorophenyl)-5-(4-pyridyl)pyrazolo[3,4-b]pirridin-2-yl]propan-1-ol]	–	82.6%
Cn1cc2c(-c3ccc(F)cc3)c(-c3ccnc(Nc4ccc(S(N)(=O)=O)cc4)c3)c(-c3ccc(F)cc3)nc2n1 [Example 214, 4-[4-[4,6-Bis(4-fluorophenyl)-2-methylpyrazolo[3,4-b]pyridin-5-yl]pyridin-2-ylamino]benzenesulfonamide]	71.1%	–
CC(CO)Nc1nccc(-c2cc3cn(C)nc3nc2-c2ccc(F)cc2)n1 (stereo not shown) [Example 283, 2-[4-[6-(4-Fluorophenyl)-2-methylpyrazolo[3,4-b]pyridin-5-yl]pyrimidin-2-ylamino]propan-1-ol]	52.4%	–
C[S+]([O-])c1ccc(-n2cc3c(-c4ccc(F)cc4)c(-c4ccncc4)c(-c4ccc(F)cc4)nc3n2)cc1 (stereo not shown) [Example 56, 4,6-Bis(4-fluorophenyl)-2-(4-methylsulfinylphenyl)-5-(4-pyridyl)pyrazolo[3,4-b]pyridine]	58.7%	–
FC(F)(F)c1cccc(-c2nc3[nH]ncc3cc2-c2ccnc(NCc3ccccc3)n2)c1 [Example 290, N-Benzyl-[4-[6-(3-trifluoromethyl-phenyl)-1H-pyrazolo[3,4-b]pyridin-5-yl]pyrimidin-2-yl]amine]	65.8%	–
C[S+]([O-])c1ccc(Cn2cc3c(-c4ccc(F)cc4)c(-c4ccncc4)c(-c4ccc(F)cc4)nc3n2)cc1 (stereo not shown) [Example 59, 4,6-Bis(4-fluorophenyl)-2-(4-methylsulfinylbenzyl)-5-(4-pyridyl)pyrazolo[3,4-b]pyridine]	60%	–
OCCCNc1nccc(-c2cc3cn[nH]c3nc2-c2cccc(C(F)(F)F)c2)n1 [Example 287, 3-[4-[6-(3-Trifluoromethylphenyl)-1H-pyrazolo[3,4-b]pyridin-5-yl]pyrimidin-2-ylamino]propan-1-ol]	71.2%	–
Fc1ccc(-c2nc3[nH]nc(Cl)c3c(-c3ccc(F)cc3)c2-c2ccncc2)cc1 [Example 63, 3-Chloro-4,6-bis(4-fluorophenyl)-5-(4-pyridyl)-1H-pyrazolo[3,4-b]pyridine]	53.2%	–
Cn1cc2c(-c3ccc(F)cc3)c(-c3ccncc3)c(-c3ccc(F)cc3)nc2n1 [Example 8, 4,6-Bis(4-fluorophenyl)-2-methyl-5-(4-pyridyl)pyrazolo[3,4-b]pyridine]	66.3%	–
O=C(NCCn1cc2c(-c3ccc(F)cc3)c(-c3ccncc3)c(-c3ccc(F)cc3)nc2n1)C1CCNCC1 [Example 248, N-[2-[4,6-Bis(4-fluorophenyl)-5-(4-pyridyl)pyrazolo[3,4-b]pyridin-2-yl]ethyl]piperidine-4-carboxamide]	53.2%	–
Cn1cnc(-c2c(-c3ccncc3)c(-c3ccc(F)cc3)nc3nn(C)cc23)c1 [Example 184, 6-(4-Fluorophenyl)-2-methyl-4-(1-methyl-1H-imidazol-4-yl)-5-(4-pyridyl)pyrazolo[3,4-b]pyridine]	71.2%	–
Fc1ccc(-c2nc3nn(CCC4CCNCC4)cc3c(-c3ccc(F)cc3)c2-c2ccncc2)cc1 [Example 43, 4,6-Bis(4-fluorophenyl)-2-[2-(4-piperidyl)ethyl]-5-(4-pyridyl)pyrazolo[3,4-b]pyridine]	61.2%	–
CC(=O)Nc1n[nH]c2nc(-c3ccc(F)cc3)c(-c3ccnc(NCC4CC4)n3)cc12 [Example 268, N-[5-[2-[(Cyclopropylmethyl)amino]pyrimidin-4-yl]-6-(4-fluorophenyl)-1H-pyrazolo[3,4-b]pyridin-3-yl]acetamide]	69.1%	–
OCCn1cc2cc(-c3ccnc(NCC4CC4)n3)c(-c3ccc(F)cc3)nc2n1 [Example 211, 2-[5-[2-[(Cyclopropylmethyl)-amino]pyrimidin-4-yl]-6-(4-fluorophenyl)pyrazolo[3,4-b]pyridin-2-yl]ethanol]	70.6%	–
Cn1cc2c(-c3ccccc3)c(-c3ccncc3)c(-c3ccccc3)nc2n1 [Example 22, 2-Methyl-4,6-diphenyl-5-(4-pyridyl)pyrazolo[3,4-b]pyridine]	56.5%	–
